Results reported in patent US9604961B2, “Histone demethylase inhibitors” (Celgene Quanticel Research, Inc., priority 2012, dated 2017).

Experiments:
Assay type in all cases: biochemical
FBXL10 = FBXL10 (Homo sapiens (Human), UniProt Q8NHM5); test: FBXL10 in vitro enzyme inhibition assay (AlphaScreen)
Description: Reaction product was determined quantitatively by AlphaScreen detection after the addition of detection reagents anti-H3K36me1 antibody, AlphaScreen® Streptavidin-coated Donor beads, and AlphaScreen® Protein A Acceptor beads in 50 mM HEPES, pH7.3, 10 mM NaCl, 0.005% Brij35, 5 mM EDTA, 2 mg/ml BSA to final 10 μg/ml beads.
Plates were incubated at room temperature for 40 minutes, followed by addition of 3 μl of 50 μg/ml AlphaScreen® Streptavidin-coated Donor beads and AlphaScreen® Protein A Acceptor beads in 50 mM HEPES, pH7.3, 10 mM NaCl, 0.005% Brij35, 5 mM EDTA, 2 mg/ml BSA. Plates were read by EnVisionMultilabel Reader in AlphaScreen mode after a minimum of 2 hour or up to overnight incubation at room temperature. The AlphaScreen signal for each well was used to determine inhibition constant (IC50).

JMJD2C = JMJD2C (Homo sapiens (Human), UniProt Q9H3R0); test: JMJD2C in vitro enzyme inhibition assay (TR-FRET)
JMJD2C, sequence (Q9H3R0 2-372): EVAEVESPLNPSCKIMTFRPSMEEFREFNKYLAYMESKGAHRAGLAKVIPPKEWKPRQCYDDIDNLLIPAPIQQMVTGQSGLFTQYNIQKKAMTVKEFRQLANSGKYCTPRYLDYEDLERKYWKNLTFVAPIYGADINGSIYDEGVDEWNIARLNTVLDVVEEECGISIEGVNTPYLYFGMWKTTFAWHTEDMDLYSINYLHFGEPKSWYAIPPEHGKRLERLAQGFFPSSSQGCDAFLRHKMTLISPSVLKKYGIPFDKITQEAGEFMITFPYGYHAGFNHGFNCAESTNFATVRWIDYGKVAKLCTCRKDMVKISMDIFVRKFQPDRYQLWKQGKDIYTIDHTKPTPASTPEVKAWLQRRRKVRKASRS

Jarid1A = Jarid1A (Homo sapiens (Human), UniProt P29375); test: Jarid1A in vitro enzyme inhibition assay (TR-FRET)
Jarid1A, sequence (P29375 1-1090): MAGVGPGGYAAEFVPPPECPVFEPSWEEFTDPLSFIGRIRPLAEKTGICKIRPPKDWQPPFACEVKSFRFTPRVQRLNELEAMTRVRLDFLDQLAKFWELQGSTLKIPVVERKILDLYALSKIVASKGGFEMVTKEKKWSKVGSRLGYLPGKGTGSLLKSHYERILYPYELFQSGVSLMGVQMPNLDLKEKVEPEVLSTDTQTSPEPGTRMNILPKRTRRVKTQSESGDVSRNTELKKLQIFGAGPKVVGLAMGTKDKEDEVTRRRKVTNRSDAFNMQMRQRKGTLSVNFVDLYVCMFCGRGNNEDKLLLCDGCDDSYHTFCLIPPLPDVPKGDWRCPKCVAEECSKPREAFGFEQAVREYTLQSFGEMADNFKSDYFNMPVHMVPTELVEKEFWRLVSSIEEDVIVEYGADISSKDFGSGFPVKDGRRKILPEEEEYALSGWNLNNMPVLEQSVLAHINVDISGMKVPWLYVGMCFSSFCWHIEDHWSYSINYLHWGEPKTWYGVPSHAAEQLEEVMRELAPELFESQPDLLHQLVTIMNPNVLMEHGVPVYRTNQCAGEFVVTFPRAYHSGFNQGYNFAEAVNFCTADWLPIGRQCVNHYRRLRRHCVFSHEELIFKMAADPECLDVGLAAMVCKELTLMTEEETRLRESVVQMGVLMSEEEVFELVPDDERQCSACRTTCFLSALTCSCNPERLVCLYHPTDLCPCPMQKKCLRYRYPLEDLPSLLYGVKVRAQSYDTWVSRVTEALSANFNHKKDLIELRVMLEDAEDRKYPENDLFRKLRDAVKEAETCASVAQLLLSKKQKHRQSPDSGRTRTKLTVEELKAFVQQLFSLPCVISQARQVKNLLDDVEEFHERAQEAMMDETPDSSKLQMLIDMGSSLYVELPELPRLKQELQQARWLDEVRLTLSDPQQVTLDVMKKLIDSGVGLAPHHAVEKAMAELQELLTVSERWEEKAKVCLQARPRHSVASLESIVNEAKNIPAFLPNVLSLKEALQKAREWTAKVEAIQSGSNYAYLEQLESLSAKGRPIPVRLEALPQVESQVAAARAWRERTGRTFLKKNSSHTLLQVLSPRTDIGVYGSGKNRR
From the text: The enzymatic assay of Jarid1A activity is based upon Time Resolved-Fluorescence Resonance Energy Transfer (TR-FRET) detection.

Jarid1B = Jarid1B (Homo sapiens (Human), UniProt Q9UGL1); test: Jarid1B in vitro enzyme inhibition assay (TR-FRET)
Jarid1B, sequence (Q9UGL1 2-751): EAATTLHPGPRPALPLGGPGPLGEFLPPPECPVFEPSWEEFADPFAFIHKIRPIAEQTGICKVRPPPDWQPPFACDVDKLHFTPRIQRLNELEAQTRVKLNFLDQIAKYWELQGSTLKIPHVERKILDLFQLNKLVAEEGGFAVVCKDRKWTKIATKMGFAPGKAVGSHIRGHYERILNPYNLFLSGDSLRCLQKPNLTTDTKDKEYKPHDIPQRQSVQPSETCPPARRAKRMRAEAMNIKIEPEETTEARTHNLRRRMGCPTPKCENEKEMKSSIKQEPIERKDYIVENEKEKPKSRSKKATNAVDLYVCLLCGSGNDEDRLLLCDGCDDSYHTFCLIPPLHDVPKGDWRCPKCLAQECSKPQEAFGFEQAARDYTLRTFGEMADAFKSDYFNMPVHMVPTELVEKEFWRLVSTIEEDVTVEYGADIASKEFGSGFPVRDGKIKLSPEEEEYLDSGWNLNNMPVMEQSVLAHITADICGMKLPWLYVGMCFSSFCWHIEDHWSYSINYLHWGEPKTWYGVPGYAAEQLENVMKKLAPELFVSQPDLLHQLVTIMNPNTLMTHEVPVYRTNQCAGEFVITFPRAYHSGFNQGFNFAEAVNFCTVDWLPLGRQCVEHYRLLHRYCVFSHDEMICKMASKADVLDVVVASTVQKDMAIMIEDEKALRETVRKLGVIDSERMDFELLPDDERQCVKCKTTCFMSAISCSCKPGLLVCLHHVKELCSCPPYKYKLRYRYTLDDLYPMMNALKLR

FBXL10, sequence (Q8NHM5 1-650): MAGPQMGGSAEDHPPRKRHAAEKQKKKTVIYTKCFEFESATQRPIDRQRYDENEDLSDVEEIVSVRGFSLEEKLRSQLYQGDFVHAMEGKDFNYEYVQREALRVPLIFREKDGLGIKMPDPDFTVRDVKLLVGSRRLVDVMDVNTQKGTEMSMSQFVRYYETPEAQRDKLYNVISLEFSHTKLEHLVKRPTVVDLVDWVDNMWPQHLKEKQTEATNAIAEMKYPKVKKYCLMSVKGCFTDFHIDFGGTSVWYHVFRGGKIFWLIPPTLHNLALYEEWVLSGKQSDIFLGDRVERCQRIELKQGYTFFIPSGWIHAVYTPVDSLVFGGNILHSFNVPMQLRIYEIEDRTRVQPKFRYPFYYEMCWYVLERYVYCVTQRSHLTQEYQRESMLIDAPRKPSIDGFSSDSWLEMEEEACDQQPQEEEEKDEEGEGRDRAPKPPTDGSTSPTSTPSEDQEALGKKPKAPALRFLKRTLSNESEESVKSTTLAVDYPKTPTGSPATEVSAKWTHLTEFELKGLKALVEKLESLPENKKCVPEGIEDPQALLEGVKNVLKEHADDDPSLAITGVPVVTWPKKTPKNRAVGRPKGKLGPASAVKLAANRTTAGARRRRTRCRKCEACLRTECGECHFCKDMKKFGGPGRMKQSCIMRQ

| Structure (SMILES) | IC50 (FBXL10) | IC50 (JMJD2C) | IC50 (Jarid1A) | IC50 (Jarid1B) |
| --- | --- | --- | --- | --- |
| CC(c1ccccc1)c1cc(O)n(-c2cc(-c3nnn[nH]3)ccn2)n1 (stereo not shown) [Example 166, 5-(1-phenylethyl)-2-[4-(1H-tetrazol-5-yl)pyridin-2-yl]pyrazol-3-ol] | < 100 nM | 1000 to 10000 nM | – | – |
| O=C(O)c1ccnc(-n2nccc2OCc2ccc(Cl)cc2OCC2CC2)c1 [Example 106, 2-[5-[[4-chloro-2-(cyclopropylmethoxy)phenyl]methoxy]pyrazol-1-yl]pyridine-4-carboxylic acid] | 1000 to 10000 nM | 100 to 1000 nM | < 100 nM | < 100 nM |
| O=C(O)c1ccnc(-n2nc(Cc3ccc(F)cc3F)cc2O)c1 [Example 175, 2-[3-[(2,4-difluorophenyl)methyl]-5-hydroxypyrazol-1-yl]pyridine-4-carboxylic acid] | < 100 nM | 1000 to 10000 nM | – | – |
| O=C(O)c1ccnc(-n2nc(C3(c4ccc(Cl)cc4)CC3)cc2O)c1 [Example 171, 2-[3-[1-(4-chlorophenyl)cyclopropyl]-5-hydroxypyrazol-1-yl]pyridine-4-carboxylic acid] | < 100 nM | 1000 to 10000 nM | – | – |
| O=C(O)c1ccnc(-n2nccc2-c2ccc(F)cc2)c1 [Example 27, 2-(5-(4-fluorophenyl)-1H-pyrazol-1-yl)isonicotinic acid] | > 10000 nM | 100 to 1000 nM | 100 to 1000 nM | 100 to 1000 nM |
| CC(C)(c1ccc(Cl)cc1)c1cc(O)n(-c2cc(C(=O)O)ccn2)n1 [Example 170, 2-[3-[2-(4-chlorophenyl)propan-2-yl]-5-hydroxypyrazol-1-yl]pyridine-4-carboxylic acid] | < 100 nM | 1000 to 10000 nM | – | – |
| Oc1cc(Cc2ccccc2Cl)nn1-c1cc(-c2nnn[nH]2)ccn1 [Example 167, 5-[(2-chlorophenyl)methyl]-2-[4-(1H-tetrazol-5-yl)pyridin-2-yl]pyrazol-3-ol] | < 100 nM | 1000 to 10000 nM | – | – |
| O=C(O)c1ccnc(-n2nccc2Cc2ccccc2)c1 [Example 32, 2-(5-benzyl-1H-pyrazol-1-yl)isonicotinic acid] | 1000 to 10000 nM | > 10000 nM | > 10000 nM | > 10000 nM |
| O=C(O)c1ccnc(-n2nccc2OCc2ccc(F)cc2)c1 [Example 40, 2-{5-[(4-fluorobenzyl)oxy]-1H-pyrazol-1-yl}pyridine-4-carboxylic acid] | > 10000 nM | < 100 nM | < 100 nM | < 100 nM |
| O=C(O)c1ccnc(-n2nccc2O)c1 [Example 11, 2-(5-hydroxy-1H-pyrazol-1-yl)isonicotinic acid] | 100 to 1000 nM | 100 to 1000 nM | < 100 nM | < 100 nM |
| O=C(O)c1ccnc(-n2nccc2OCc2ccc(Cl)cc2OCc2ccccc2)c1 [Example 105, 2-[5-[(4-chloro-2-phenylmethoxyphenyl)methoxy]pyrazol-1-yl]pyridine-4-carboxylic acid] | 100 to 1000 nM | 100 to 1000 nM | < 100 nM | < 100 nM |
| O=C(O)c1ccnc(-n2nc(Cc3cc(Cl)cc(Cl)c3)cc2O)c1 [Example 172, 2-[3-[(3,5-dichlorophenyl)methyl]-5-hydroxypyrazol-1-yl]pyridine-4-carboxylic acid] | 100 to 1000 nM | 1000 to 10000 nM | – | – |
| O=C(O)c1ccnc(-n2ccc(Cc3ccccc3)n2)c1 [Example 33, 2-(3-benzyl-1H-pyrazol-1-yl)isonicotinic acid] | 1000 to 10000 nM | 1000 to 10000 nM | 1000 to 10000 nM | 1000 to 10000 nM |
| Cc1ccc(COc2ccnn2-c2cc(C(=O)O)ccn2)cc1Cl [Example 92, 2-[5-[(3-chloro-4-methylphenyl)methoxy]pyrazol-1-yl]pyridine-4-carboxylic acid] | 1000 to 10000 nM | < 100 nM | < 100 nM | < 100 nM |
| N#Cc1ccc(COc2ccnn2-c2cc(C(=O)O)ccn2)cc1 [Example 99, 2-[5-[(4-cyanophenyl)methoxy]pyrazol-1-yl]pyridine-4-carboxylic acid] | 1000 to 10000 nM | < 100 nM | < 100 nM | < 100 nM |
| Cc1nn(-c2cc(C(=O)O)ccn2)c(O)c1C [Example 3, 2-(5-hydroxy-3,4-dimethyl-1H-pyrazol-1-yl)isonicotinic acid] | 100 to 1000 nM | 100 to 1000 nM | 100 to 1000 nM | < 100 nM |
| Cc1ccc(Cc2cc(O)n(-c3cc(C(=O)O)ccn3)n2)c(F)c1 [Example 174, 2-[3-[(2-fluoro-4-methylphenyl)methyl]-5-hydroxypyrazol-1-yl]pyridine-4-carboxylic acid] | < 100 nM | 1000 to 10000 nM | – | – |

| Structure (SMILES) | IC50 (FBXL10) | IC50 (JMJD2C) | IC50 (Jarid1A) | IC50 (Jarid1B) |
| --- | --- | --- | --- | --- |
| Oc1cc(Cc2cccc(Cl)c2)nn1-c1cc(-c2nnn[nH]2)ccn1 [Example 168, 5-[(3-chlorophenyl)methyl]-2-[4-(1H-tetrazol-5-yl)pyridin-2-yl]pyrazol-3-ol] | < 100 nM | 1000 to 10000 nM | – | – |
| O=C(O)c1ccnc(-n2nc(-c3ccccc3F)cc2O)c1 [Example 5, 2-(3-(2-fluorophenyl)-5-hydroxy-1H-pyrazol-1-yl)isonicotinic acid] | < 100 nM | 1000 to 10000 nM | 1000 to 10000 nM | 1000 to 10000 nM |
| O=C(O)c1ccnc(-n2nc(-c3ccccc3Cl)cc2O)c1 [Example 7, 2-(3-(2-chlorophenyl)-5-hydroxy-1H-pyrazol-1-yl)isonicotinic acid] | < 100 nM | > 10000 nM | 1000 to 10000 nM | 1000 to 10000 nM |
| Cc1cc(O)n(-c2cc(C(=O)O)ccn2)n1 [Example 1, 2-(5-hydroxy-3-methyl-1H-pyrazol-1-yl)isonicotinic acid] | 100 to 1000 nM | 100 to 1000 nM | 100 to 1000 nM | < 100 nM |
| CN(CCc1cnn(-c2cc(C(=O)O)ccn2)c1)Cc1ccc(F)cc1 [Example 156, 2-[4-[2-[(4-fluorophenyl)methyl-methylamino]ethyl]pyrazol-1-yl]pyridine-4-carboxylic acid] | > 10000 nM | < 100 nM | < 100 nM | < 100 nM |
| COCc1cc(O)n(-c2cc(C(=O)O)ccn2)n1 [Example 9, 2-(5-hydroxy-3-(methoxymethyl)-1H-pyrazol-1-yl)isonicotinic acid] | < 100 nM | 1000 to 10000 nM | 100 to 1000 nM | 100 to 1000 nM |
| Cc1nn(-c2cc(C(=O)O)ccn2)c(O)c1-c1ccccc1 [Example 4, 2-(5-hydroxy-3-methyl-4-phenyl-1H-pyrazol-1-yl)isonicotinic acid] | 100 to 1000 nM | 1000 to 10000 nM | 1000 to 10000 nM | 1000 to 10000 nM |
| O=C(O)c1ccnc(-n2nccc2OCc2ccc3cn[nH]c3c2)c1 [Example 49, 2-[5-(1H-indazol-6-ylmethoxy)-1H-pyrazol-1-yl]pyridine-4-carboxylic acid] | 100 to 1000 nM | 1000 to 10000 nM | 100 to 1000 nM | 100 to 1000 nM |
| O=C(O)c1ccnc(-n2nc(Cc3ccccc3)cc2O)c1 [Example 8, 2-(3-benzyl-5-hydroxy-1H-pyrazol-1-yl)isonicotinic acid] | < 100 nM | 1000 to 10000 nM | 100 to 1000 nM | 100 to 1000 nM |
| O=C(O)c1ccnc(-n2nccc2OCc2ccc(Cl)cc2OCC(F)(F)F)c1 [Example 108, 2-[5-[[4-chloro-2-(2,2,2-trifluoroethoxy)phenyl]methoxy]pyrazol-1-yl]pyridine-4-carboxylic acid] | 1000 to 10000 nM | 100 to 1000 nM | < 100 nM | < 100 nM |
| Cc1ccc(COc2ccnn2-c2cc(C(=O)O)ccn2)cc1 [Example 55, 2-{5-[(4-methylbenzyl)oxy]-1H-pyrazol-1-yl}pyridine-4-carboxylic acid] | 1000 to 10000 nM | < 100 nM | < 100 nM | < 100 nM |
| O=C(O)c1ccnc(-n2nc(Cc3c(F)cccc3F)cc2O)c1 [Example 161, 2-[3-[(2,6-difluorophenyl)methyl]-5-hydroxypyrazol-1-yl]pyridine-4-carboxylic acid] | < 100 nM | 1000 to 10000 nM | – | – |
| CCCc1cc(O)n(-c2cc(C(=O)O)ccn2)n1 [Example 6, 2-(5-hydroxy-3-propyl-1H-pyrazol-1-yl)isonicotinic acid] | 100 to 1000 nM | 100 to 1000 nM | 100 to 1000 nM | 100 to 1000 nM |
| O=C(O)c1ccnc(-n2nc(COc3ccccc3)cc2O)c1 [Example 10, 2-(5-hydroxy-3-(phenoxymethyl)-1H-pyrazol-1-yl)isonicotinic acid] | < 100 nM | > 10000 nM | 1000 to 10000 nM | 100 to 1000 nM |
| Cc1cc(F)ccc1Cc1cc(O)n(-c2cc(C(=O)O)ccn2)n1 [Example 173, 2-[3-[(4-fluoro-2-methylphenyl)methyl]-5-hydroxypyrazol-1-yl]pyridine-4-carboxylic acid] | < 100 nM | 1000 to 10000 nM | – | – |
| CCc1ccc(COc2ccnn2-c2cc(C(=O)O)ccn2)cc1 [Example 56, 2-{5-[(4-ethylbenzyl)oxy]-1H-pyrazol-1-yl}pyridine-4-carboxylic acid] | 1000 to 10000 nM | 100 to 1000 nM | < 100 nM | < 100 nM |
